Experimental data: patent US10238642B2, “Methods for treating neurogenic orthostatic hypotension” (Theravance Biopharma R&D IP, LLC, priority 2016, dated 2019)

What was measured:
NET = NET (Rattus norvegicus, UniProt Q9WTR4); assay: Ex vivo transporter occupancy in rat spinal cord (PK/PD model), NET; conditions: estimate (% CV)
Description: (§1) Adult male Sprague Dawley rats (Charles River) were housed under controlled laboratory conditions (temperature at 21±1° C.) on a 12:12 hour light-dark cycle. Animals were given free access to food and water upon arrival to the facility and animals were acclimatized to their holding room for at least 48 hours. Animals were fasted but allowed free access to water for 15-18 hours prior to dosing.
(§2) Rats (n=6/timepoint/dose level) received a single oral dose of 4-[2-(2,4,6-trifluorophenoxymethyl)phenyl]piperidine (0.3, 1, 5, 10, 30, and 60 mg/kg) and were euthanized by decapitation at specified time points (0.5, 2, 4, 6, and 8 hr for 5 mg/kg dose level; 2 hr for 0.3, 1, 10, 30, and 60 mg/kg dose levels) post-administration. Spinal cords were dissected for ex vivo transporter occupancy and PK assessments from the same animals. The spinal cord was harvested by hydraulic extrusion using phosphate-buffered saline, and the lumbar segment dissected and frozen on dry ice. The remaining spinal cord segments were collected and homogenized in water (25% w/w) for PK analysis. All samples were stored at −80° C. until analysis.
A kinetic radioligand binding assay was used to determine NET and SERT occupancy in rat spinal cord, as described previously in Bourdet et al., J. Pharm. Exp. Ther. (2012) 341:137-145. PK/PD parameters were estimated by a compartmental modeling approach (WinNonlin Version 5.0.1, Pharsight Corporation). One- and two-compartment PK models with first-order absorption and elimination were evaluated. The one-compartment model was selected. The pharmacodynamics model was an effect compartment Emax model linked directly to the central PK compartment (WinNonlin PK Model 3, PD Model 101). Selection of models was based upon best fit in terms of visual inspection, Akaike Information Criteria, and weighted residual sum of squares using the Gauss-Newton minimization method.

[1] = Plasma protein binding, rat; type: in vitro ADME
human recombinant NET = target: T1, human recombinant NET (Homo sapiens, UniProt P23975); assay: [3H]-NE neurotransmitter uptake inhibition in HEK293-hNET cells; type: cell-based; conditions: human transporters
T1 construct: expressed in transfected cells; host or cells: HEK293
Text: (§3) The in vitro pharmacology of 4-[2-(2,4,6-trifluorophenoxymethyl)phenyl]-piperidine at human recombinant and rat native monoamine transporters was characterized as described in Smith et al., Inter. J. Neuropsychopharmcol. (2015) 1-11; and Tsuruda et al., J. Pharmacol. Toxicol. Meth. (2010) 61:192-204. See also, e.g., U.S. Pat. No. 8,304,432 B2 and U.S. Pat. No. 8,304,433 B2. Radioligands were sourced commercially (Perkin Elmer LifeSciences or GE Healthcare Life Sciences).
(§4) Briefly, membranes prepared from HEK293 (Human Embryonic Kidney 293) or CHO-K1 (Chinese Hamster Ovary-K1) cells stably transfected with human recombinant SERT (HEK293-hSERT), NET (HEK293-hNET), or DAT (CHO-KT-hDAT) were incubated for 1 hr at 22° C. in the absence, or presence, of 4-[2-(2,4,6-trifluorophenoxymethyl)phenyl]piperidine and [^3H]-citalopram (1.0 nM) for SERT, [^3H]-nisoxetine (2.0 nM) for NET, and [^3H]-WIN35428 (3.0 nM) for DAT in 50 mM Tris-HCl, 120 mM NaCl, 5 mM KCl, 0.025% BSA, 100 μM ascorbic acid, pH 7.4. Rat cortical membrane preparations were incubated with [^3H]-citalopram (2.0 nM) for SERT or [3H]-nisoxetine (4.0 nM) for NET for 1 hr at 22° C. […] Binding and uptake assays were terminated by rapid filtration and radioactivity determined by liquid scintillation spectroscopy.

rat native NET [2] = assay: [3H]-NE uptake inhibition in rat cortical synaptosomes; type: biochemical
Text: as §3, §4

rat native NET [3] = target: T2, rat native NET (Rattus norvegicus, UniProt Q9WTR4); assay: [3H]-nisoxetine radioligand binding, rat cortical membranes; conditions: mean (95% confidence intervals), read-out: Transporter Binding: pKi, NET (converted)
T2 construct: other: Rat cortical membranes; mean (95% confidence intervals)
Text: as §3, §4

SERT = target: T3, SERT (Rattus norvegicus, UniProt P31652); assay: Ex vivo transporter occupancy in rat spinal cord (PK/PD model), SERT
T3 construct: Spinal cords were dissected for ex vivo transporter occupancy and PK assessments from the same animals; from tissue; host or cells: lumbar spinal cord of orally dosed male Sprague Dawley rats
Description: as §1, §2
A kinetic radioligand binding assay was used to determine NET and SERT occupancy in rat spinal cord, as described previously in Bourdet et al., J. Pharm. Exp. Ther. (2012) 341:137-145. […] One- and two-compartment PK models with first-order absorption and elimination were evaluated. […]

[4] = Plasma protein binding, human; type: in vitro ADME
[5] = test system: tyramine pressor response; assay: Cardiovascular model in anesthetized rat: inhibition of tyramine pressor response; type: in vivo; conditions: iv, read-out: estimated potency for inhibition of tyramine-induced increase in SBP (Tyr EC50)
CYP1A2 = target: T4, CYP1A2 (Homo sapiens, UniProt P05177); conditions: cited from earlier work
T4 sequence (P05177 1-516): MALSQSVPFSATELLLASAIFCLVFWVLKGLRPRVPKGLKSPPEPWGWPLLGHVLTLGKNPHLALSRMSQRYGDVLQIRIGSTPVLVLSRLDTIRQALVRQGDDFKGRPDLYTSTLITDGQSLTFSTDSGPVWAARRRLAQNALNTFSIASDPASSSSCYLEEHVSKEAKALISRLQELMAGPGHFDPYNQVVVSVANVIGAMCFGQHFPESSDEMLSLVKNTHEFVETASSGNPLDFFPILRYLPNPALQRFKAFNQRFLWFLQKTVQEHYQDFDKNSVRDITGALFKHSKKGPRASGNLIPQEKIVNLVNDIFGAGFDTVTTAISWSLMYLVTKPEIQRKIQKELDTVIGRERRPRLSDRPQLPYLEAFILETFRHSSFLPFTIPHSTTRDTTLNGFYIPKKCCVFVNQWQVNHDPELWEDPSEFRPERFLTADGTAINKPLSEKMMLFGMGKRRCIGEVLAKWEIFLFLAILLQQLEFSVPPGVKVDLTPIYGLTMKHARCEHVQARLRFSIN

NET, sequence (Q9WTR4 1-597): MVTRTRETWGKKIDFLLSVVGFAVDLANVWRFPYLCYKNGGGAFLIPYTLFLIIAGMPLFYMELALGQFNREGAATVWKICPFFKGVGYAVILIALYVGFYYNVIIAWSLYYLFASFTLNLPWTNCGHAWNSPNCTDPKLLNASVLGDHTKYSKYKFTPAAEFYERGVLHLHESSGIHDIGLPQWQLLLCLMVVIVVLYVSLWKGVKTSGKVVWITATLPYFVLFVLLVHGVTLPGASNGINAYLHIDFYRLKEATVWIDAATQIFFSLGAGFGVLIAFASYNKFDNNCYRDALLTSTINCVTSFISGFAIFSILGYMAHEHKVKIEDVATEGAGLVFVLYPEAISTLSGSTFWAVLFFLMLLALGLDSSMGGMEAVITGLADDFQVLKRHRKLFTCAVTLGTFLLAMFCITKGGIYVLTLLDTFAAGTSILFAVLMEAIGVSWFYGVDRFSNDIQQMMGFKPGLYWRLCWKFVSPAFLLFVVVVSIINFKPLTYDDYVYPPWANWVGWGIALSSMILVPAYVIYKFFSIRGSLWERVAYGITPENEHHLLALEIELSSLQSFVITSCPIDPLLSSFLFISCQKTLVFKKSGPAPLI
T3 sequence (P31652 whole entry): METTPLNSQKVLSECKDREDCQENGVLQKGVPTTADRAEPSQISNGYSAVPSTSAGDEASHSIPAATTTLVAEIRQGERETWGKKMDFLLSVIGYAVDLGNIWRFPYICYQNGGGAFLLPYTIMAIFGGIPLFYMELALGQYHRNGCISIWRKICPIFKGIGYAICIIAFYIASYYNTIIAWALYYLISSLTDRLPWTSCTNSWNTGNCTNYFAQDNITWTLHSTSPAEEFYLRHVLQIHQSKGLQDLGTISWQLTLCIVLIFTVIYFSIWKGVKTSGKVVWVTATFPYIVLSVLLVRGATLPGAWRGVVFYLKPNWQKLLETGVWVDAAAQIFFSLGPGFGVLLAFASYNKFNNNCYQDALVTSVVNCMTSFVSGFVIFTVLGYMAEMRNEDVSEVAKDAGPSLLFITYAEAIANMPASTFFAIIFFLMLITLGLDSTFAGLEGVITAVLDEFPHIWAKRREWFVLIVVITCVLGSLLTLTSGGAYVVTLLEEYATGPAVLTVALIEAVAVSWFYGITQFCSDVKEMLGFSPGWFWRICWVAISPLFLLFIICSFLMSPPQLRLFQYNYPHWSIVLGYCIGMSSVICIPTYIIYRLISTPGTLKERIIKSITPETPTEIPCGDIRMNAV
T2 sequence (Q9WTR4 1-597): as the sequence (Q9WTR4 1-597) above
T1 sequence (P23975 whole entry): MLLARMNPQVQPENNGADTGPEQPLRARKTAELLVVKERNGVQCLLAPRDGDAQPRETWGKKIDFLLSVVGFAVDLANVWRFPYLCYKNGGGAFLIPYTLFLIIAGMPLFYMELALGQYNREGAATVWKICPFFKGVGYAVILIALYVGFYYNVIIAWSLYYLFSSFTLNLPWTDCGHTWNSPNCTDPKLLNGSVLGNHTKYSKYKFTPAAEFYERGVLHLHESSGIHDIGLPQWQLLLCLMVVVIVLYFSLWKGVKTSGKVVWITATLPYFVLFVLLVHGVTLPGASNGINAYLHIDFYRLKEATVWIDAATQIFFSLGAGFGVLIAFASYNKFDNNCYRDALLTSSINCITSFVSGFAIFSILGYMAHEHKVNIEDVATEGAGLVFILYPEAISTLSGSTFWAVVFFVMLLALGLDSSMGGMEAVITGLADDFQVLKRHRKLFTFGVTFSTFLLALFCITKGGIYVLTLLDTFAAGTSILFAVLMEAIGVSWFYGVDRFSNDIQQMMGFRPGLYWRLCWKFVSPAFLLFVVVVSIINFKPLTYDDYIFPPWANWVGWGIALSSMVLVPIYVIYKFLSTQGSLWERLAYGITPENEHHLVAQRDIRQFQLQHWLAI

## Fc1cc(F)c(OCc2ccccc2C2CCNCC2)c(F)c1 [4-[2-(2,4,6-trifluorophenoxymethyl)phenyl]piperidine]
NET; rat spinal cord, single oral dose
  Emax (% occupancy), NET: 92.0 (19) % occupancy
NET; rat spinal cord
  EC50: 36.4 nM
NET; rat
  keo (first-order equilibration rate constant), NET: 1.78 (57) hr^−1
[1]
  fraction unbound: 0.098
Human recombinant NET
  higher potency for inhibition of NET over SERT: 4 fold
Rat native NET [2]
  apparent functional selectivity for NET over SERT: 10 fold
Rat native NET [3]
  Ki: 2 nM
SERT; projected from rat, accounting for species differences in plasma protein binding
  EC50: 74.4 nM
SERT; rat, estimate (% CV)
  keo (first-order equilibration rate constant), SERT: 11.0 (86) hr^−1
[4]
  fraction unbound: 0.209
[5]
  EC50: 0.86 nM
CYP1A2
  reduction of metabolism by chemical inhibition of CYP1A2: 25%
